Read-outs that look alike come from different tables or passages of the source.
Legend:
AKT2, AKT3 = test: KiNativ, MOLM13 live cells; assay type: cell-based, human; conditions: 100 nM, 2 hours; ATP Loop
Protocol: (§1) Samples were analyzed by KiNativ in situ kinase profiling by ActivX Biosciences.

AMPKa1, AMPKa2 = test: KiNativ, MOLM13 live cells; assay type: cell-based, human; conditions: 100 nM, 2 hours
Protocol: as §1

CDK11, CDK8 = test: KiNativ, MOLM13 live cells; assay type: cell-based, human; conditions: 100 nM, 2 hours; Lys2
Protocol: as §1

JNK1, JNK2, JNK3 = test: KiNativ, MOLM13 live cells; assay type: cell-based, human; conditions: 100 nM, 2 hours; Lys2
Protocol: as §1

MAP3K15, MAP3K5, MAP3K6 = test: KiNativ, MOLM13 live cells; assay type: cell-based, human; conditions: 100 nM, 2 hours; Lys1
Protocol: as §1

MAP3K2, MAP3K3 = test: KiNativ, MOLM13 live cells; assay type: cell-based, human; conditions: 100 nM, 2 hours; Lys2
Protocol: as §1

[1] = system: MSK1 domain1, MSK2 domain1; test: KiNativ, MOLM13 live cells; assay type: cell-based, human; conditions: 100 nM, 2 hours; ATP Loop
Protocol: as §1

MST1, MST2 = test: KiNativ, MOLM13 live cells; assay type: cell-based, human; conditions: 100 nM, 2 hours; Lys2
Protocol: as §1

MST4, YSK1 = test: KiNativ, MOLM13 live cells; assay type: cell-based, human; conditions: 100 nM, 2 hours; Lys2
Protocol: as §1

NDR1, NDR2 = test: KiNativ, MOLM13 live cells; assay type: cell-based, human; conditions: 100 nM, 2 hours; Activation Loop
Protocol: as §1

NEK6, NEK7 = test: KiNativ, MOLM13 live cells; assay type: cell-based, human; conditions: 100 nM, 2 hours; Lys2
Protocol: as §1

[2] = system: RSK1 domain1, RSK2 domain1, RSK3 domain1; test: KiNativ, MOLM13 live cells; assay type: cell-based, human; conditions: 100 nM, 2 hours; Lys2
Protocol: as §1

SRPK1, SRPK2 = test: KiNativ, MOLM13 live cells; assay type: cell-based, human; conditions: 100 nM, 2 hours; Lys1
Protocol: as §1

TAO1, TAO3 = test: KiNativ, MOLM13 live cells; assay type: cell-based, human; conditions: 100 nM, 2 hours; Lys2
Protocol: as §1

Wnk1, Wnk2 = test: KiNativ, MOLM13 live cells; assay type: cell-based, human; conditions: 100 nM, 2 hours; ATP Loop
Protocol: as §1

[3] = system: ZC1/HGK, ZC2/TNIK, ZC3/MINK; test: KiNativ, MOLM13 live cells; assay type: cell-based, human; conditions: 100 nM, 2 hours; Lys2
Protocol: as §1

p38d, p38g = test: KiNativ, MOLM13 live cells; assay type: cell-based, human; conditions: 100 nM, 2 hours; Lys2
Protocol: as §1

ABL, ARG = test: KiNativ, OCI cells live cell; assay type: cell-based, human
AurA, AurB, AurC = test: KiNativ, OCI cells live cell; assay type: cell-based, human; conditions: labeling site ATP Loop, peptide GKFGNVYLAR
CaMK2d = CaMK2d (Homo sapiens, UniProt Q13557); test: KiNativ, OCI cells live cell; assay type: cell-based; conditions: 2 h, labeling site Lys1, peptide […]
CaMK2d, sequence (Q13557 whole entry): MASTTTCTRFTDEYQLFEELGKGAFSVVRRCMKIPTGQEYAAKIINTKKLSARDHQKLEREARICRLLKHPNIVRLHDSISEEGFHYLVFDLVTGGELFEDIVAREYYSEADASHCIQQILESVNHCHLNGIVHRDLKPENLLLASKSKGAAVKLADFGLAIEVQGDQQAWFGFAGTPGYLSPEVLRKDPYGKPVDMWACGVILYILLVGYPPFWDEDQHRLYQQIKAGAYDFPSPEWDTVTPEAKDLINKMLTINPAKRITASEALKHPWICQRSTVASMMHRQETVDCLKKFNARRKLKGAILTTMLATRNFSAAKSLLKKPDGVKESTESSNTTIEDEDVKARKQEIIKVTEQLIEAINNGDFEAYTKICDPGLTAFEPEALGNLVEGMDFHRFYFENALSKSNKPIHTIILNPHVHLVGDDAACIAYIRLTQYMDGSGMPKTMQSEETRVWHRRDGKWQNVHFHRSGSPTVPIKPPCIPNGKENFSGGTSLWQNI

CDK4 = CDK4 (Homo sapiens, UniProt P11802); test: KiNativ, OCI cells live cell; assay type: cell-based; conditions: 2 h, labeling site Lys2, peptide […]
CDK4, sequence (P11802 2-303 limits assumed): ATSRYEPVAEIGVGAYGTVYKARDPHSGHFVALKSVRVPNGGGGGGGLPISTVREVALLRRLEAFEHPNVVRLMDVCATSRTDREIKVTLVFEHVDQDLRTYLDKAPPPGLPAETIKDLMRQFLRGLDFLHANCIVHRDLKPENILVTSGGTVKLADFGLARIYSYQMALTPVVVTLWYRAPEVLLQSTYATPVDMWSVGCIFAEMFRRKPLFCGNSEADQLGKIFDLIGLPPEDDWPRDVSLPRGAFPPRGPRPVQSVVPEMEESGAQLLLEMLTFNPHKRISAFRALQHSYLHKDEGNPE

Erk5 = Erk5 (Homo sapiens, UniProt Q13164); test: KiNativ, OCI cells live cell; assay type: cell-based; conditions: 2 h, labeling site Lys2, peptide […]
Erk5, sequence (Q13164 whole entry, the tested form may be a part): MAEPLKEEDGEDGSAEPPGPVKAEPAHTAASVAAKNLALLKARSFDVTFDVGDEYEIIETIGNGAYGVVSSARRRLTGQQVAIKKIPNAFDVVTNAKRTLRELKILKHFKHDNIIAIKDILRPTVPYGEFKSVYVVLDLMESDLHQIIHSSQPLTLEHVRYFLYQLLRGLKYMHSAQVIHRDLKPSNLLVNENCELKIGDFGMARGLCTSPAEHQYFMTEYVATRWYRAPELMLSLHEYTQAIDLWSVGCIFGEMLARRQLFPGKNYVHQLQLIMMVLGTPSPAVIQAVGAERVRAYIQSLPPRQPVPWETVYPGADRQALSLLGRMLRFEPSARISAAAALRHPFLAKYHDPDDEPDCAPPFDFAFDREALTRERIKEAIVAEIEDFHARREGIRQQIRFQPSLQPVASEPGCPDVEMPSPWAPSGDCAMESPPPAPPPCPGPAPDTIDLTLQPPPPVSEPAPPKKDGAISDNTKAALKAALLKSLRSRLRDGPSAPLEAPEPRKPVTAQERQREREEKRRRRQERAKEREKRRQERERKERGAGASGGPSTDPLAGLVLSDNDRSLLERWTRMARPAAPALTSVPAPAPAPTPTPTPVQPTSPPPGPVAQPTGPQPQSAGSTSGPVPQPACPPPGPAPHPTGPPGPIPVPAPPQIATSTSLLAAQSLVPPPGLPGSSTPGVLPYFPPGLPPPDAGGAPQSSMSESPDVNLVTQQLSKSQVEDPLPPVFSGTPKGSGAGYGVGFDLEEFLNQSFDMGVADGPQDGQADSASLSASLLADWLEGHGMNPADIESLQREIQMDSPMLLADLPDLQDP

MSK2 domain1 = molecular target: T1, MSK2 domain1 (Homo sapiens, UniProt O75676); test: KiNativ, OCI cells live cell; assay type: cell-based; conditions: 2 h
T1 construct: MSK2 domain1
T1 sequence (O75676 whole entry, the tested form may be a part): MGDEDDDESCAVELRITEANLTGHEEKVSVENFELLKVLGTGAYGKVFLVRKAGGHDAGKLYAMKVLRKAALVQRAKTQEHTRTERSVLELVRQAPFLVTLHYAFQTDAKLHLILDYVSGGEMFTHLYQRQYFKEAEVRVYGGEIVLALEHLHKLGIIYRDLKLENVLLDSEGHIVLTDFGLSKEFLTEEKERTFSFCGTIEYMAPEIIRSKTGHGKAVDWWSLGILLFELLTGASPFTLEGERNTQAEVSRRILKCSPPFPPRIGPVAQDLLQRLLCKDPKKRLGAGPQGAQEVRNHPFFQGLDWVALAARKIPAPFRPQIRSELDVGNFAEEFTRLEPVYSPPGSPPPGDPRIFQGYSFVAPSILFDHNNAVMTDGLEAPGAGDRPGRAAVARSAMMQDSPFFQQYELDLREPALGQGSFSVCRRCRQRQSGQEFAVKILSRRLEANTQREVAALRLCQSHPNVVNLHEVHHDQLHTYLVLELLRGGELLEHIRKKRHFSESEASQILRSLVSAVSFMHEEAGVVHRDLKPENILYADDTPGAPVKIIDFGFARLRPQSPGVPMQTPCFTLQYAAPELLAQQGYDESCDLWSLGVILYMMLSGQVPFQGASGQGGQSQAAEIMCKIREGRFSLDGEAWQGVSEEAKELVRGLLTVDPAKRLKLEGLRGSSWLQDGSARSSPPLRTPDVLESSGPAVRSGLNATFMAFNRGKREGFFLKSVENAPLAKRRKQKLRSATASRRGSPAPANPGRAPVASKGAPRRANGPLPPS

MST1 = MST1 (Homo sapiens, UniProt Q13043); test: KiNativ, OCI cells live cell; assay type: cell-based; conditions: labeling site Lys1, peptide ETGQIVAIKQVPVESDLQEIIK
MST1, sequence (Q13043 whole entry): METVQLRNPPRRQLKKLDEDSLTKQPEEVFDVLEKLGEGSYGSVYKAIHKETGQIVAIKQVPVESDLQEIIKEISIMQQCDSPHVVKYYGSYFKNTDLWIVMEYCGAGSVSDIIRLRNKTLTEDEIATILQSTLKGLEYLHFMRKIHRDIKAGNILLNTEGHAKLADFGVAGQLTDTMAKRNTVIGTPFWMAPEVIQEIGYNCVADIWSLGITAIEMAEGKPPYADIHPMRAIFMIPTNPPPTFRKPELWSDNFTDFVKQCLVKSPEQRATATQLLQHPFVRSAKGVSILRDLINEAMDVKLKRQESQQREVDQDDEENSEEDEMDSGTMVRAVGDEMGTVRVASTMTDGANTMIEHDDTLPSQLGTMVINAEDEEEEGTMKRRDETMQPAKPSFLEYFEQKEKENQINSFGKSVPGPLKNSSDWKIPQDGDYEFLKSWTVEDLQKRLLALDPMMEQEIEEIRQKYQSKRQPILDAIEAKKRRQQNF

NDR1 = NDR1 (Homo sapiens, UniProt Q15208); test: KiNativ, OCI cells live cell; assay type: cell-based; conditions: 2 h
NDR1, sequence (Q15208 whole entry): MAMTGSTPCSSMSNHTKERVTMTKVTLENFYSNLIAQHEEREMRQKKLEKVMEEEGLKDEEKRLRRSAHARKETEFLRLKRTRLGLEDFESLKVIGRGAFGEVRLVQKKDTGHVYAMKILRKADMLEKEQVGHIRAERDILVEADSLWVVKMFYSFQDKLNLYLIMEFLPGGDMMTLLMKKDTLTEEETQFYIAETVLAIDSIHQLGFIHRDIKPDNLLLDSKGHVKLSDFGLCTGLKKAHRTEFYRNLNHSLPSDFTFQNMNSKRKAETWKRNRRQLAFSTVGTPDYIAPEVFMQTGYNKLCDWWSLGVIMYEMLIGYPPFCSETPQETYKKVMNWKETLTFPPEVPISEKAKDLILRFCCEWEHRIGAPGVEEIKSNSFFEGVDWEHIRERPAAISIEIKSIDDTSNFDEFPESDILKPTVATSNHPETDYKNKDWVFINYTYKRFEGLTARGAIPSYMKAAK

NEK9 = molecular target: T2, NEK9 (Homo sapiens, UniProt Q8TD19); test: KiNativ, OCI cells live cell; assay type: cell-based; conditions: 2 h
T2 sequence (Q8TD19 1-979): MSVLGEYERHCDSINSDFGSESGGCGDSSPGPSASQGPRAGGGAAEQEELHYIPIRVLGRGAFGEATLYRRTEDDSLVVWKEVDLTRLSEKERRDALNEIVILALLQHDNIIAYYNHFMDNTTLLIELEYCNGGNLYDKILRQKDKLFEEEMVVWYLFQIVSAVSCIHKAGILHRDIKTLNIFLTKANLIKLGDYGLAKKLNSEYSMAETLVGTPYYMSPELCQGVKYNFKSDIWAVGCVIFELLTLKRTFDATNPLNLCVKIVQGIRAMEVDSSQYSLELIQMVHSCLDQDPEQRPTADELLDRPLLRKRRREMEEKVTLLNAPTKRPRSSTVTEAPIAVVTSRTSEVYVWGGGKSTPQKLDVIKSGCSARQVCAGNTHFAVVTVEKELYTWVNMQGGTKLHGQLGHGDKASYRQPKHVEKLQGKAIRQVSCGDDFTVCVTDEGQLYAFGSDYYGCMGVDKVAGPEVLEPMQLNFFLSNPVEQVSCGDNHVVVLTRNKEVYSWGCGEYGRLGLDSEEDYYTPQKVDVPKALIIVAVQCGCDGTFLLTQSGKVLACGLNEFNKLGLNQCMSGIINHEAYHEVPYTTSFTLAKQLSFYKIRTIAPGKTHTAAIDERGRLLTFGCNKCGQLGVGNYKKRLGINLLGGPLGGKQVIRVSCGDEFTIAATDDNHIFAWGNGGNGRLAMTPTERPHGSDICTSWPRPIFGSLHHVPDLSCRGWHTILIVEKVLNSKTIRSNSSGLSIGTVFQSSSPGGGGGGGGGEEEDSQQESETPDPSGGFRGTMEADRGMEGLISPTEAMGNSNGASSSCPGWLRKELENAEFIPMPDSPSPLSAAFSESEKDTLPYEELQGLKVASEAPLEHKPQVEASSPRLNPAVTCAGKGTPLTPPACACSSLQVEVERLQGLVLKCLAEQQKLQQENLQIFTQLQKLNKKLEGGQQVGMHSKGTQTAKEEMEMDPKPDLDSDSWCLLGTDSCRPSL

PYK2 = PYK2 (Homo sapiens, UniProt Q14289); test: KiNativ, OCI cells live cell; assay type: cell-based; conditions: 2 h
PYK2, sequence (Q14289 whole entry): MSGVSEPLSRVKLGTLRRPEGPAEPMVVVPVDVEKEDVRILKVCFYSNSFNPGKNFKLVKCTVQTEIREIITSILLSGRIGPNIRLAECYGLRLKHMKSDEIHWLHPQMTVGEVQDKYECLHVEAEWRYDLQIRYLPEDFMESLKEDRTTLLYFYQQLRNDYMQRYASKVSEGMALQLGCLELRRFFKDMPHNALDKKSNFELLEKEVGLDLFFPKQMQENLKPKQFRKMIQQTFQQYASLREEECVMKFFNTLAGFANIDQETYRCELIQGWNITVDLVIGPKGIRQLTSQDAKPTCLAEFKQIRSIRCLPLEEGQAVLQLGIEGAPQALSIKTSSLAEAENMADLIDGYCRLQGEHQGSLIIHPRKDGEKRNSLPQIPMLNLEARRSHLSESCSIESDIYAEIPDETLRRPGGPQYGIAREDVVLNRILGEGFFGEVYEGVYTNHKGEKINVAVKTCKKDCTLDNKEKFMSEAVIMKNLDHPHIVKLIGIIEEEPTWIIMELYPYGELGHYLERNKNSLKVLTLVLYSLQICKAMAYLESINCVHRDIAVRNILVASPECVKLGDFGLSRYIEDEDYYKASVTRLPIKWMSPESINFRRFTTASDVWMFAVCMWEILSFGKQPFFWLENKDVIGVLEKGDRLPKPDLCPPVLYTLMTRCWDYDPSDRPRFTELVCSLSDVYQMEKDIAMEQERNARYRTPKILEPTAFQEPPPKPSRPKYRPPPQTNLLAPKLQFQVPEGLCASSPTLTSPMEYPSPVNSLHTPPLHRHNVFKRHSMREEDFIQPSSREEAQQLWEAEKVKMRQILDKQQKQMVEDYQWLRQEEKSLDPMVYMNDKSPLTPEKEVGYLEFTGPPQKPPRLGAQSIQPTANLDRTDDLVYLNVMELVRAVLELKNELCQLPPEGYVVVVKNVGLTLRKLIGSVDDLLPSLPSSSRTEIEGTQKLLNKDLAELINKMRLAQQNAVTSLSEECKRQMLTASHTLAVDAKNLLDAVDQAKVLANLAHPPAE

CN1CCN(Cc2ccc(Nc3ncc(Cl)c(Nc4ccccc4S(=O)(=O)N(C)C)n3)cc2)CC1 [TP-0903]
Inhibition vs DMSO (AKT2, AKT3): -63.3%
Inhibition vs DMSO (AMPKa1, AMPKa2; Lys1): 19.6%
Inhibition vs DMSO (AMPKa1, AMPKa2; Lys2): 33.8%
Inhibition vs DMSO (CDK11, CDK8): -1.1%
Inhibition vs DMSO (JNK1, JNK2, JNK3): 18.9%
Inhibition vs DMSO (MAP3K15, MAP3K5, MAP3K6): -11.5%
Inhibition vs DMSO (MAP3K2, MAP3K3): -4.2%
Inhibition vs DMSO [1]: -6.6%
Inhibition vs DMSO (MST1, MST2): 41.2%
Inhibition vs DMSO (MST4, YSK1): 39.6%
Inhibition vs DMSO (NDR1, NDR2): -0.8%
Inhibition vs DMSO (NEK6, NEK7): 7.8%
Inhibition vs DMSO [2]: 15.9%
Inhibition vs DMSO (SRPK1, SRPK2): 21.8%
Inhibition vs DMSO (TAO1, TAO3): 9.9%
Inhibition vs DMSO (Wnk1, Wnk2): -30.2%
Inhibition vs DMSO [3]: 50.7%
Inhibition vs DMSO (p38d, p38g): -8.7%
Inhibition (ABL, ARG; labeling site Activation Loop, peptide LMTGDTYTAHAGAKFPIK): 37.3%
Inhibition (ABL, ARG; labeling site Lys1, peptide YSLTVAVKTLKEDTMEVEEFLK): 40.1%
Inhibition (AurA, AurB, AurC): 91.0%
inhibition at 0.1 µM (CaMK2d): 34.5%
inhibition at 0.1 µM (CDK4): 24.3%
inhibition at 0.1 µM (Erk5): 86.8%
inhibition at 0.1 µM (MSK2 domain1; labeling site Lys1, peptide LYAMKVLR): 21.8%
inhibition at 0.1 µM (MSK2 domain1; labeling site Lys2, peptide DLKLENVLLDSEGHIVLTDFGLSK): 12.3%
Inhibition (MST1): 33.6%
inhibition at 0.1 µM (NDR1; labeling site Lys1, peptide DTGHVYAMKILR): 12.3%
inhibition at 0.1 µM (NDR1; labeling site Lys2, peptide DIKPDNLLLDSK): -7.7%
inhibition at 0.1 µM (NEK9): 37.9%
inhibition at 0.1 µM (NEK9; OCI cells, live cell, labeling site Activation Loop, peptide LGDYGLAKK, read-out: Inhibition): 39.6%
inhibition at 0.1 µM (NEK9; OCI cells, live cell, labeling site Lys1, peptide RTEDDSLVVWKEVDLTR, read-out: Inhibition): 40.8%
inhibition at 0.1 µM (PYK2; labeling site Activation Loop, peptide YIEDEDYYKASVTR): 40.6%
inhibition at 0.1 µM (PYK2; labeling site Lys1, peptide INVAVKTCK): 80%
